What was measured:
Assay in all cases: relative viability (nuclei count vs DMSO), 5 days (fraction); higher = more cells survive
[1] = compound: C1=CC=C(C(=C1)C2=CC=C(C=C2)C3=CSC4=C3C(=C(C(=O)N4)C#N)O)O + Cc1nc(Nc2ncc(C(=O)Nc3c(C)cccc3Cl)s2)cc(N2CCN(CCO)CC2)n1 [Dasatinib] (partner 0.075 µM)
Method in brief: (§1)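 Cells from lung cancer lines were seeded into 1536-well plates and, one day later, dosed by pin tool. Treatments were either a single drug or a fixed dose of an anchor drug with five library-drug doses (not always all listed) in √10 steps. After 5 days, nuclei were stained in a one-step fixation (final 0.05% Triton X-100, 1% formaldehyde, 1 ug/ml Hoechst) and counted on 4× images, and relative viability is the treated-to-vehicle nuclei ratio, as the median of duplicate plates.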

TGX 221 + Dasatinib = compound: CC1=CN2C(=O)C=C(N=C2C(=C1)C(C)NC3=CC=CC=C3)N4CCOCC4 [TGX 221] + Cc1nc(Nc2ncc(C(=O)Nc3c(C)cccc3Cl)s2)cc(N2CCN(CCO)CC2)n1 [Dasatinib] (partner 0.075 µM)
Method in brief: as §1

Ricolinostat + Lapatinib = compound: O=C(CCCCCCNC(=O)c1cnc(N(c2ccccc2)c2ccccc2)nc1)NO [Ricolinostat] + CS(=O)(=O)CCNCc1ccc(-c2ccc3ncnc(Nc4ccc(OCc5cccc(F)c5)c(Cl)c4)c3c2)o1 [Lapatinib] (partner 2 µM)
Method in brief: as §1

[2] = compound: O=C(CCCCCCNC(=O)c1cnc(N(c2ccccc2)c2ccccc2)nc1)NO [Ricolinostat] + N=C(N)NC(=N)NCCc1ccccc1 [Phenformin] (partner 250 µM)
Method in brief: as §1

| Cell Line | relative viability ([1]; first compound 0.08 µM) | relative viability ([1]; first compound 0.253 µM) | relative viability ([1]; first compound 0.8 µM) | relative viability ([1]; first compound 2.53 µM) | relative viability ([1]; first compound 8 µM) | relative viability (TGX 221 + Dasatinib; first compound 0.08 µM) | relative viability (TGX 221 + Dasatinib; first compound 0.253 µM) | relative viability (TGX 221 + Dasatinib; first compound 0.8 µM) | relative viability (TGX 221 + Dasatinib; first compound 2.53 µM) | relative viability (TGX 221 + Dasatinib; first compound 8 µM) | relative viability (Ricolinostat + Lapatinib; first compound 0.08 µM) | relative viability (Ricolinostat + Lapatinib; first compound 0.253 µM) | relative viability (Ricolinostat + Lapatinib; first compound 0.8 µM) | relative viability (Ricolinostat + Lapatinib; first compound 2.53 µM) | relative viability ([2]; first compound 0.08 µM) | relative viability ([2]; first compound 0.253 µM) | relative viability ([2]; first compound 0.8 µM) | relative viability ([2]; first compound 2.53 µM) |
| --- | --- | --- | --- | --- | --- | --- | --- | --- | --- | --- | --- | --- | --- | --- | --- | --- | --- | --- |
| NCI-H2009 | 0.322 | 0.267 | 0.322 | 0.302 | 0.29 | 0.254 | 0.199 | 0.228 | 0.213 | 0.177 | 0.812 | 0.887 | 0.832 | 0.74 | 0.455 | 0.46 | 0.446 | 0.43 |
| H3255 | 0.369 | 0.352 | 0.255 | 0.39 | 0.35 | 0.257 | 0.417 | 0.355 | 0.307 | 0.342 | 0.189 | 0.3 | 0.2 | 0.207 | 0.367 | 0.358 | 0.405 | 0.416 |
| EPLC-272H | 0.311 | 0.306 | 0.339 | 0.407 | 0.303 | 0.392 | 0.29 | 0.351 | 0.302 | 0.287 |  | 0.978 | 1.03 | 0.884 | 0.263 | 0.273 | 0.26 | 0.144 |
| NCI-H1734 | 0.396 | 0.474 | 0.452 | 0.489 | 0.455 | 0.472 | 0.393 | 0.433 | 0.444 | 0.391 | 1 | 1.05 | 1.02 | 0.891 | 0.35 | 0.452 | 0.351 | 0.466 |
| NCI-H2087 | 0.67 | 0.878 | 0.969 | 0.925 | 0.703 | 1.02 | 0.75 | 0.646 | 0.9 | 0.993 | 1.07 | 1.05 | 0.921 | 0.698 |  | 0.441 | 0.405 | 0.239 |
| NCI-H522 | 0.849 | 0.761 | 0.957 | 0.829 | 0.837 | 0.834 | 0.81 | 0.851 | 0.843 | 0.826 |  |  |  |  | 0.609 | 0.559 | 0.704 | 0.829 |
| NCI-H1666 | 0.6 | 0.858 | 0.987 | 0.903 | 0.722 | 0.81 | 0.756 | 0.778 | 0.739 | 0.753 | 0.564 | 0.65 | 0.542 | 0.374 | 0.481 | 0.572 | 0.547 | 0.521 |
| NCI-H1915 | 0.335 | 0.344 |  | 0.314 | 0.34 | 0.257 | 0.303 | 0.304 | 0.302 | 0.314 | 0.965 | 0.958 | 0.858 | 0.965 | 0.324 | 0.358 | 0.347 | 0.363 |
| NCI-H1623 | 0.484 | 0.548 | 0.496 | 0.603 | 0.546 | 0.538 | 0.564 | 0.599 | 0.541 | 0.536 |  |  |  |  | 0.559 | 0.582 | 0.557 | 0.556 |
| LCLC-103H | 0.33 | 0.415 | 0.458 | 0.463 | 0.404 | 0.359 | 0.438 | 0.446 | 0.344 | 0.307 |  |  |  |  | 0.252 | 0.323 | 0.371 | 0.325 |
| NCI-H2342 | 0.315 | 0.345 | 0.309 | 0.354 | 0.284 | 0.286 | 0.339 | 0.314 | 0.292 | 0.299 |  |  |  |  | 0.475 | 0.578 | 0.614 | 0.713 |
| Calu-6 |  |  |  |  |  |  |  |  |  |  | 0.926 | 1.03 | 1.01 | 0.785 |  |  |  |  |
| A549 |  |  |  |  |  |  |  |  |  |  | 0.977 | 0.887 | 0.859 | 0.72 |  | 0.114 | 0.132 | 0.155 |
| HCC-44 |  |  |  |  |  |  |  |  |  |  | 1.04 | 0.976 | 0.922 | 0.713 | 0.186 | 0.265 | 0.169 | 0.166 |
| NCI-H1703 |  |  |  |  |  |  |  |  |  |  | 1.03 | 0.928 | 1.06 | 1.07 |  |  |  |  |
| NCI-H1299 |  |  |  |  |  |  |  |  |  |  | 0.941 | 0.871 | 0.902 | 0.895 |  |  |  |  |
| NCI-H441 | 0.437 | 0.626 | 0.582 | 0.636 | 0.538 | 0.534 | 0.597 | 0.59 | 0.609 | 0.661 |  |  |  |  |  | 0.956 | 0.889 | 0.643 |
| ChaGo-K-1 | 0.48 | 0.614 | 0.661 | 0.595 | 0.542 | 0.548 | 0.536 | 0.615 | 0.494 | 0.575 |  |  |  |  | 0.537 | 0.494 | 0.46 | 0.513 |
| EBC-1 |  |  |  |  |  |  |  |  |  |  | 0.206 | 0.207 | 0.221 | 0.215 |  |  |  |  |
| SW 900 | 0.596 | 0.937 | 0.594 | 0.361 | 0.531 | 0.461 | 0.444 | 0.383 | 0.39 | 0.254 |  |  |  |  | 0.441 | 0.635 | 0.433 | 0.48 |
| IA-LM |  |  |  |  |  |  |  |  |  |  |  | 0.841 | 0.542 | 0.398 |  |  |  |  |

From the supplement of paper PMC10307832
